According to patent publication US11566017B2, “Dihydroquinazolinone compound or pharmacologically acceptable salt, and cell growth inhibitor” (RIKEN, priority 2017, dated 2023):

Experiments:
[1] = target: T1, tankyrase 2 (TNKS2) (Homo sapiens, UniProt Q9H2K2); experiment: Tankyrase inhibitory activity test (ELISA, auto-poly(ADP-ribosyl)ation), tankyrase 2; assay type: biochemical; conditions: Flag tagged tankyrase 2 (613-1,116aa, ANK5+SAM+PARP); read-out: TNKS2 (inhibitory activity against tankyrase 2, IC50)
T1 construct: tankyrase 2 (613-1,116aa, ANK5+SAM+PARP); made in house; host or cells: cell-free protein expression system
Experimental: (§1) The enzymatic activity of tankyrase 1 and the enzymatic activity of tankyrase 2 were measured by the ELISA method based on assessment of auto-poly(ADP-ribosyl)ation to evaluate the tankyrase inhibitory activity of the compound prepared in each of Examples (test compound) (inhibitory activity against tankyrase 1 (TNKS1) and inhibitory activity against tankyrase 2 (TNKS2)). First, Flag tagged tankyrase 1 (1,024-1,327aa, SAM+PARP) and tankyrase 2 (613-1,116aa, ANK5+SAM+PARP) were synthesized with a cell-free protein expression system, and diluted with a Tris buffer solution (50 mM Tris-HCl (pH 8.0), 150 mM NaCl, 10% glycerol). 50 μL of the diluted tankyrase 1 or tankyrase 2 was added to a plate with an anti-FLAG M2 monoclonal antibody immobilized thereon (Anti-FLAG High-Sensitivity M2-Coated Plate) (Sigma-Aldrich), and the plate was left standing overnight at 4° C. Thereafter, the plate was washed four times with a PBS (PBST) buffer containing 0.1% Triton X-100. For Example 84, the Anti-FLAG High-Sensitivity M2-Coated Plate was replaced by an immunoplate (Thermo Fisher Scientific), tankyrase 1 or tankyrase 2 was immobilized on the immunoplate, and the immunoplate was then blocked with Blocking One (nacalai tesque), then washed with a PBS (PBST) buffer, and used as the following plate.
(§2) Subsequently, the test compound diluted with an assay buffer (50 mM Tris-HCl (pH 8.0), 4 mM MgCl2, 0.2 mM DTT) (DMSO was used as a control) was added to each well of the plate, and the plate was left standing at room temperature for 10 minutes. Thereafter, a biotin-labeled NAD solution (225 μM NAD, 25 μM 6-Biotin-17-NAD (Travigen, Inc.)) was added and mixed as a donor substrate, and the mixture was reacted at 30° C. for 45 minutes. To blank wells was added distilled water instead of the biotin-labeled NAD solution. After the reaction, the plate was washed with a PBST buffer four times. Thereafter, HRP (horseradish peroxidase)-labeled streptavidin (Travigen, Inc.) was diluted with a PBS buffer by 1,000 times, and added to each well, and the mixture was reacted at room temperature for 20 minutes. The plate was washed with a PBST buffer four times, a chemiluminescent substrate solution TACS-Sapphire (Travigen, Inc.) was then added to each well, the mixture was reacted at room temperature for 20 minutes, and the chemiluminescence intensity was measured using a chemiluminescence measuring apparatus. For Example 84, the streptavidin was diluted by 5,000 times, the chemiluminescent substrate solution TACS-Sapphire was replaced by an ELISA POD substrate TMB solution easy (nacalai tesque), the mixture was reacted at room temperature for 30 minutes, and the chemiluminescence intensity was measured using a chemiluminescence measuring apparatus.
(§3) The residual enzymatic activity in the presence of the test compound was determined from the following expression. On the basis of the residual enzymatic activity at each of multiple concentrations of the test compound, the enzyme inhibitory activity was calculated in terms of a 50%-inhibition concentration (IC50 value) using data analysis software Origin (LightStone Corp.). Residual activity (%)={(chemiluminescence intensity with test compound added)−(chemiluminescence intensity of blank)}/{(chemiluminescence intensity of control)−(chemiluminescence intensity of blank)}

[2] = test system: human colorectal cancer cell line COLO-320DM; experiment: Cell proliferation inhibitory activity test (Celltiter-Glo); assay type: cell-based; conditions: COLO-320DM cells, 96 hours
Experimental: The cell proliferation inhibitory activity of the compound, which had been prepared in each of Examples, against the human colorectal cancer cell line COLO-320DM was evaluated by Celltiter-Glo Luminescent Cell Viability Assay (Promega Corporation; G7573). COLO-320DM cells were cultured in RPMI-1640 medium containing 2 mM glutamine (Wako Pure Chemical Industries, Ltd; 189-02025) supplemented with 10% fetal bovine serum. The cultured cells were washed with PBS, and then dissociated with trypsin/EDTA, and a cell solution with 3×10^4 cells/mL was prepared.
Subsequently, the cell solution was seeded in a 96-well microplate (Thermo/Nunc Company; 136101) in an amount of 70 μL per well, and cultured overnight under the condition of 37° C. and 5% CO2. Next day, a test compound solution obtained by diluting the test compound (DMSO solution) with a cell culture medium (final concentration of DMSO was 1%) was added in an amount of 10 μL per well, and the mixture was reacted under the condition of 37° C. and 5% CO2 for 96 hours (a 1% DMSO solution was used as a control). Thereafter, a Celltiter-GloLuminescent Cell Viability Assay reagent (Promega Corporation; G7573) was added in an amount of 80 μL per well, the mixture was stirred with a shaker for 2 minutes while light was blocked with an aluminum foil, and the mixture was incubated at room temperature for 10 minutes.
Thereafter, a luminescence signal was measured with a luminometer (Biotech Company; Synergy). The ratio of cell proliferation in each compound addition group to cell proliferation in a control group containing no test compound solution, where cell proliferation in the control group is 100%, was calculated and the value of a compound concentration necessary for suppressing the amount of residual cells to 50% of that in the control (GI50) was calculated as the cytostatic activity. […] An unevaluated test compound was designated as “NT”.

[3] = target: T2, tankyrase 1 (TNKS1) (Homo sapiens, UniProt O95271); experiment: Tankyrase inhibitory activity test (ELISA, auto-poly(ADP-ribosyl)ation), tankyrase 1; assay type: biochemical; conditions: Flag tagged tankyrase 1 (1,024-1,327aa, SAM+PARP); read-out: TNKS1 (inhibitory activity against tankyrase 1, IC50)
T2 construct: tankyrase 1 (1,024-1,327aa, SAM+PARP); made in house; host or cells: cell-free protein expression system
T2 sequence (O95271 1024-1327): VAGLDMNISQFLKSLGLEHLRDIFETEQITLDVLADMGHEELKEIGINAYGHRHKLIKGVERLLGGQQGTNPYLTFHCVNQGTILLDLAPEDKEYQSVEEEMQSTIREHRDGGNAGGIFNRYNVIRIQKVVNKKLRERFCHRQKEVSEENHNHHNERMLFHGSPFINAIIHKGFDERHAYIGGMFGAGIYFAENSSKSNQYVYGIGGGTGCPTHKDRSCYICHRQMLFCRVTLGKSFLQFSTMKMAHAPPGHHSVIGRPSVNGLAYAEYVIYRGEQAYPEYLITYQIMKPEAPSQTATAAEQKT
Experimental: as §1, §2, §3

IC50 [1] [nM] | GI50 [2] [nM] | IC50 [3] [nM] | SMILES
20 to 50 | ≥ 10000 | 20 to 50 | CCN1c2ccccc2C(=O)NC1c1c[nH]nc1-c1ccc(C(=O)OC)cc1 (stereo not drawn) [Example 13, Methyl 4-[4-(1-ethyl-4-oxo-2,3-dihydroquinazolin-2-yl)-1H-pyrazol-3-yl]benzoate]
5 to 20 | ≥ 10000 | < 5 | COc1ccc(-c2n[nH]cc2C2NC(=O)c3cccc4c3N2CC4)cc1 (stereo not drawn) [Example 52, 11-[5-(4-Methoxyphenyl)-1H-pyrazol-4-yl]-1,10-diazatricyclo[6.3.1.0^4,12]dodeca-4(12),5,7-trien-9-one]
5 to 20 | ≥ 10000 | 5 to 20 | CCOC(=O)COc1ccc(-c2n[nH]nc2C2NC(=O)c3cccc(C)c3N2)cc1 (stereo not drawn) [Example 79]
< 5 | < 1000 | < 5 | CCOc1ccc(-c2n[nH]nc2[C@H]2NC(=O)c3cccc(C)c3N2)cc1 [Example 8, (2R)-2-[5-(4-Ethoxyphenyl)-2H-1,2,3-triazol-4-yl]-8-methyl-2,3-dihydro-1H-quinazolin-4-one]
< 5 | ≥ 10000 | 5 to 20 | CN1c2ccccc2C(=O)NC1c1c[nH]nc1-c1ccccc1 (stereo not drawn) [Example 10, 1-Methyl-2-(3-phenyl-1H-pyrazol-4-yl)-2,3-dihydroquinazolin-4-one]
5 to 20 | ≥ 10000 | 5 to 20 | CN1c2ccccc2C(=O)NC1c1c[nH]nc1-c1ccc(N)cc1 (stereo not drawn) [Example 3, 2-[3-(4-Aminophenyl)-1H-pyrazol-4-yl]-1-methyl-2,3-dihydroquinazolin-4-one]
5 to 20 | 1000 to 10000 | 5 to 20 | CN1c2ccccc2C(=O)NC1c1c[nH]nc1-c1cccc(-c2ccc(N3CCOCC3)cc2)c1 (stereo not drawn) [Example 30]
5 to 20 | 1000 to 10000 | 20 to 50 | CCN1c2ccccc2C(=O)NC1c1c[nH]nc1-c1ccc(OC)cc1 (stereo not drawn) [Example 12, 1-Ethyl-2-[3-(4-methoxyphenyl)-1H-pyrazol-4-yl]-2,3-dihydroquinazolin-4-one]
5 to 20 | 1000 to 10000 | 5 to 20 | Cc1cccc2c1NC(c1n[nH]nc1-c1ccc(OCC(F)(F)F)cc1)NC2=O (stereo not drawn) [Example 72, 8-Methyl-2-[4-[4-(2,2,2-trifluoroethoxy)phenyl]-2H-1,2,3-triazol-5-yl]-2,3-dihydro-1H-quinazolin-4-one]
< 5 | 1000 to 10000 | 20 to 50 | COc1ccc(-c2n[nH]nc2C2NC(=O)c3ccccc3N2)cc1 (stereo not drawn) [Example 59, 2-[5-(4-Methoxyphenyl)-2H-1,2,3-triazol-4-yl]-2,3-dihydro-1H-quinazolin-4-one]
5 to 20 | ≥ 10000 | 20 to 50 | CN1c2ccccc2C(=O)NC1c1c[nH]nc1-c1ccc(F)cc1 (stereo not drawn) [Example 21, 2-[3-(4-Fluorophenyl)-1H-pyrazol-4-yl]-1-methyl-2,3-dihydroquinazolin-4-one]
20 to 50 | 1000 to 10000 | 20 to 50 | COc1ccc(-c2n[nH]nc2C2NC(=O)c3cccc(C(F)(F)F)c3N2)cc1 (stereo not drawn) [Example 71, 2-[5-(4-Methoxyphenyl)-2H-1,2,3-triazol-4-yl]-8-(trifluoromethyl)-2,3-dihydro-1H-quinazolin-4-one]
5 to 20 | ≥ 10000 | 20 to 50 | COc1c(F)cc(-c2n[nH]cc2C2NC(=O)c3ccccc3N2C)cc1F (stereo not drawn) [Example 49, 2-[5-(3,5-Difluoro-4-methoxyphenyl)-1H-pyrazol-4-yl]-1-methyl-2,3-dihydroquinazolin-4-one]
5 to 20 | 1000 to 10000 | 20 to 50 | CN1CCN(c2ccc(-c3ccc(-c4n[nH]cc4C4NC(=O)c5ccccc5N4C)cc3)cc2)CC1 (stereo not drawn) [Example 6, 1-Methyl-2-[5-[4-[4-(4-methylpiperazin-1-yl)phenyl]phenyl]-1H-pirazol-4-yl]-2,3-dihydroquinazolin-4-one]
5 to 20 | ≥ 10000 | 20 to 50 | CN1c2ccccc2C(=O)NC1c1n[nH]nc1-c1ccc(OCC(F)(F)F)cc1 (stereo not drawn) [Example 64, 1-Methyl-2-[4-[4-(2,2,2-trifluoroethoxy)phenyl]-2H-1,2,3-triazol-5-yl]-2,3-dihydroquinazolin-4-one]
20 to 50 | 1000 to 10000 | 20 to 50 | CN1CCN(c2ccc(-c3cccc(-c4n[nH]cc4C4NC(=O)c5ccccc5N4C)c3)cc2)CC1 (stereo not drawn) [Example 23, 1-Methyl-2-[5-[3-[4-(4-methylpiperazin-1-yl)phenyl]phenyl]-1H-pyrazol-4-yl]-2,3-dihydroquinazolin-4-one]
5 to 20 | ≥ 10000 | 5 to 20 | COc1ccc(-c2n[nH]cc2C2NC(=O)c3ccccc3N2)cc1 (stereo not drawn) [Example 82, 2-[5-(4-Methoxyphenyl)-1H-pyrazol-4-yl]-2,3-dihydro-1H-quinazolin-4-one]
20 to 50 | ≥ 10000 | 20 to 50 | CN1CCN(Cc2cccc(-c3cccc(-c4n[nH]cc4C4NC(=O)c5ccccc5N4C)c3)c2)CC1 (stereo not drawn) [Example 33]
5 to 20 | 1000 to 10000 | 20 to 50 | Cc1cccc2c1NC(c1n[nH]nc1-c1ccc(OC(C)C)cc1)NC2=O (stereo not drawn) [Example 76, 8-Methyl-2-[5-(4-propan-2-yloxyphenyl)-2H-1,2,3-triazol-4-yl]-2,3-dihydro-1H-quinazolin-4-one]
20 to 50 | 1000 to 10000 | 20 to 50 | CN1CCN(c2cccc(-c3ccc(-c4[nH]ncc4C4NC(=O)c5ccccc5N4C)cc3)c2)CC1 (stereo not drawn) [Example 38, 1-Methyl-2-[5-[4-[3-(4-methylpiperazin-1-yl)phenyl]phenyl]-1H-pyrazol-4-yl]-2,3-dihydroquinazolin-4-one]
5 to 20 | 1000 to 10000 | 5 to 20 | COc1ccc(-c2n[nH]nc2C2NC(=O)c3cccc4c3N2CCO4)cc1 (stereo not drawn) [Example 68, 2-[5-(4-Methoxyphenyl)-2H-1,2,3-triazol-4-yl]-10-oxa-1,3-diazatricyclo[7.3.1.0^5,13]trideca-5,7,9(13)-trien-4-one]
5 to 20 | 1000 to 10000 | 5 to 20 | CCOc1ccc(-c2n[nH]nc2C2NC(=O)c3cccc4c3N2CC4)cc1 (stereo not drawn) [Example 75, 11-[5-(4-Ethoxyphenyl)-2H-1,2,3-triazol-4-yl]-1,10-diazatricyclo[6.3.1.0^4,12]dodeca-4(12),5,7-trien-9-one]
